Test results as given in ChEMBL document CHEMBL3044987, “7-chloro-3-(substituted benzylidene/phenyl ethylidene amino)-2-phenylquinazolin-4(3H)-ones: synthesis, antimicrobial and antitubercular evaluation” (2012).

What was measured:
Type in all cases: functional
[1] = system: Staphylococcus aureus; experiment: Antibacterial activity against Staphylococcus aureus ATCC 6538 after 24 hr by disk diffusion method
[2] = system: Pseudomonas aeruginosa; experiment: Antibacterial activity against Pseudomonas aeruginosa ATCC 27853 after 24 hr by disk diffusion method
[3] = system: Escherichia coli; experiment: Antibacterial activity against Escherichia coli ATCC 25922 after 24 hr by disk diffusion method

Compound	inhibition zone (IZ) [1]	inhibition zone (IZ) [2]	inhibition zone (IZ) [3]
COc1cc(/C=N/n2c(-c3ccccc3)nc3cc(Cl)ccc3c2=O)ccc1O	15 mm	5 mm	21 mm
C/C(=N\n1c(-c2ccccc2)nc2cc(Cl)ccc2c1=O)c1ccc(O)cc1	15 mm	4 mm	22 mm
C/C(=N\n1c(-c2ccccc2)nc2cc(Cl)ccc2c1=O)c1ccc(Cl)cc1	15 mm	4 mm	22 mm
O=C(O)c1cn(C2CC2)c2cc(N3CCNCC3)c(F)cc2c1=O [CIPROFLOXACIN]	17 mm	18 mm	
